# Tests used:
# [1] = system: Barley shoot tips / mature embryo explants; experiment: Multiple bud/shoot induction from barley mature embryo explants on bud induction media; assay type: in vivo; conditions: for multiple bud/shoot induction in barley shoot tips: relatively high amount of cytokinin to 2,4-D, 2 weeks
# Description: To induce multiple buds/shoots from the leaf base of Barley shoot tips post co-culture, we applied medium with a high relative amount of cytokinin to auxin (measured by either concentration or relative activity). Explants were generally on these bud induction medium for a total of 2 weeks, after which presence of multiple buds/shoots was assessed (phenotype shown in FIG. 21, with data summarized in boxplot form in FIG. 22). […] In some experiments, after 1 week on induction media without selection, explants were transferred to induction media with selection. During this 2-week period explants were kept at 27 C 16/8 photoperiod. It may be possible to reduce chimerism in T0 Barley plants by extending this shoot multiplication step to 4-8 weeks.(9)
# We followed this experiment up examining removal of 2,4-D from the bud induction phase, as well as its replacement with either picloram or fipexide.
# [2] = system: LH244 maize iVAEs (immature embryos, 20 DAP); experiment: Glyphosate sensitivity (selection titer) of dried, frozen, rehydrated maize iVAEs on Regeneration II medium; assay type: in vivo
# Description: Maize iVAEs (Immature Value-Added Explants) were prepared following the methods outlined below, and viability and glyphosate sensitivity of the dried, stored embryos were tested. These iVAEs were incubated for four days in a drying chamber with MgNO3 saturated salts and then stored at s −20° C. These frozen iVAEs were later pulled from storage and used to determine process survival as well as used in an experiment to determine sensitivity to the herbicide glyphosate (Millipore Sigma Glyphosate “N-(Phosphonomethyl) glycine”; Cat #337757-5G) for future use as a selection agent for these novel explants.
# Post Storage Rehydration Method of the iVAE embryos: Dried maize embryos (iVAEs) were placed on a sterile plate of Regeneration Medium II) and incubated at room temperature for 1 hour. Afterward, sterile water was added and embryos were incubated at room temperature for an additional hour followed by gentile agitation to complete the rehydration process. Embryos were then placed on experimental media to determine survival as well as sensitivity to glyphosate. The rehydrated maize iVAEs were placed on media plates, evenly spaced, and each plate was sealed with porous tissue culture tape and incubated in growth chamber at 26° C. with 16/8 light/dark photoperiod with 60 μmol m-2 s-1. For up to 56 days of observation.
# 20 DAP LH244 ears were collected from self-pollinated plants in the greenhouse. The embryos were extracted using the iVAE protocol. The extracted and cleaned embryos were placed in a drying chamber with MgNO3 saturated salts for 4 days. LH244 embryos were frozen for 4 days, or until used, at −20° C. in a hermetically closed 50 mL Falcon tube
# LH244 embryos were rehydrated as described in Example 9. Following rehydration, plates were set up using Regeneration II Medium. The first replicate has 30 embryos per plate, and the second only 22 per plate. The measurements are standardized to the number of surviving embryos, as measured by the number of embryos displaying coleoptile elongation. A subset of embryos was tested for viability using tetrazolium chloride (TTC).
# We analyzed this experiment by counting the percent germination, looking at stress phenotype and using the viability stain tetrazolium chloride (TTC). In general, during germination, green tissue is healthy, purple tissue is stressed and producing anthocyanins, and silver or white tissue is not producing chlorophyll.
structure (smiles),measurement,setting,value
"O=C(Nc1ccccc1)Nc1cnns1 [TDZ, thidiazuron]",explant phenotype after 2 weeks on bud induction media,"[1]; 3 ppm TDZ, 1 ppm 2,4-D",multiple shooting/budding phenotype
same,multiple bud/shoot induction in barley shoot tips,[1],could induce multiple buds/shoots
O=C(COc1ccc(Cl)cc1)N1CCN(Cc2ccc3c(c2)OCO3)CC1 [fipexide],explant health versus controls,"[1]; 3 ppm TDZ, 10 ppm fipexide","looked healthier than controls on 2,4-D media"
same,explant phenotype after 2 weeks on bud induction media,"[1]; 3 ppm TDZ, 10 ppm fipexide",multiple shooting/budding phenotype
same,explant phenotype after 2 weeks on bud induction media,"[1]; 10 ppm fipexide, TDZ removed",germinating phenotype
same,explant phenotype after 2 weeks on bud induction media,[1]; 100 ppm fipexide,explant sensitivity
"O=C(O)CNCP(=O)(O)O [glyphosate, N-(Phosphonomethyl) glycine]",damage (loss of greening shoots),"[2]; 10 μM glyphosate treatment plates, at 27 days",90%
same,reduction in frequency of greening shoots (impairment),"[2]; 50 μM glyphosate treatment plates, 10 days after start",about 80%
same,glyphosate concentration giving apparent reduction of anthocyanins synthesis,[2]; after 49 days,≥ 100 µM
same,anthocyanin production in treated embryos,[2]; in response to glyphosate,significant anthocyanin production
"c1ccc(CNc2ncnc3nc[nH]c23)cc1 [BAP, 6-benzylaminopurine]",multiple bud/shoot induction in barley shoot tips,[1],could induce multiple buds/shoots

# From US12022787B2, “Efficient monocot embryo extraction and preservation methods and novel uses thereof” (Wisconsin Alumni Research Foundation, priority 2019, dated 2024)
